Source: US9284350B2, “IAP BIR domain binding compounds” (Pharmascience Inc., priority 2010, dated 2016)

Experiments:
cIAP2 = target: T1, cIAP2 (Homo sapiens, UniProt Q13489); assay: Fluorescence polarization-based competition assay, cIAP2; type: binding; details: FP assay, ki derived from IC50
T1 construct: GST (N); made in house; host or cells: E. coli DH5α
In short: (§1)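 Competition of FITC-labelled probe (2 nM) binding to the BIR domain, protein set at 80% of maximal FP signal; 10-point compound dilutions in 50 mM HEPES pH 7.5, γ-globulin, 2 mM DTT, 1% DMSO, 1 h at room temperature in the dark. IC50 from sigmoidal fit; Ki derived from IC50.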

XIAP = target: T2, XIAP (Homo sapiens, UniProt P98170); assay: Fluorescence polarization-based competition assay, XIAP; type: binding; details: FP assay, ki derived from IC50
T2 construct: fused on or other part: GST tag at the N-terminus (pGEX4T vectors)
In short: as §1

[1] = Maximum Tolerated Dose (MTD) study; type: in vivo, CD-1 mice; details: 350 mg/kg dose, PO twice weekly
Protocol: Male, CD-1 mice (20-25 g on arrival, Charles River) were habituated to the animal facility for four days and then randomly assigned to treatment groups. Animals were dosed by oral gavage twice weekly, for a total of six treatments, with compounds 63, 58, 45, 10, 20, 40, and 66 at 15, 70, or 350 mg/kg in water, PO, or water alone (5 ml/kg, PO). Body weight and general health were monitored throughout the experiment. Twenty four hours after the last dose (day 19), animals were anesthetized with isoflurane, and blood was collected for serum biochemistry. Serum biochemical parameters were restricted to random glucose, urea, creatinine, total protein, albumin, globulin, A:G ratio, total bilirubin, AST, ALT, alkaline phosphatase, GGT and amylase. Once exsanguinated the animals underwent full necropsy and organ weights were recorded for brain, heart, liver, spleen, kidneys, stomach (empty) and intestine (empty, from stomach to cecum). Because some treatments were suppressing weight gain (see below), organ weights were normalized to brain weight, and then expressed as percent change from the vehicle treated control group.

c-IAP1 = target: T3, c-IAP1 (Homo sapiens, UniProt Q13490); assay: Fluorescence polarization-based competition assay, c-IAP1; type: binding; details: FP assay, ki derived from IC50
T3 construct: GST (N); made in house; host or cells: E. coli DH5α
In short: as §1

[2] = test system: Colorectal carcinoma HCT116 cells; assay: Cell death assay (MTT) in combination with HGS ETR1; type: cell-based; details: with HGS ETR1 30 ng/ml, 72 hours, read-out: HCT116+ mapatubimap EC50
In short: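 HCT116 cells (2000/well, McCoy's 5a, 10% FBS) were treated 24 h after plating with compound plus the agonistic TRAIL receptor antibody mapatumumab (ETR1, 30 ng/ml) for 72 hours. Viability was read by MTT. EC50 was the concentration giving 50% survival relative to untreated controls.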

T2 sequence (P98170 246-497 limits assumed): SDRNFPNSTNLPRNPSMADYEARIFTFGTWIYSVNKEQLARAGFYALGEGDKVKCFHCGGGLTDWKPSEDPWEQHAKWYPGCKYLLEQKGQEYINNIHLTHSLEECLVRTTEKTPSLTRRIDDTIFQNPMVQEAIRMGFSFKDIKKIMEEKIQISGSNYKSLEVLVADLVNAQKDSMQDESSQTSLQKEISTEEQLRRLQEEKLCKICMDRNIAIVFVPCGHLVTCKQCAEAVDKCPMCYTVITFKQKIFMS
T3 sequence (Q13490 251-363): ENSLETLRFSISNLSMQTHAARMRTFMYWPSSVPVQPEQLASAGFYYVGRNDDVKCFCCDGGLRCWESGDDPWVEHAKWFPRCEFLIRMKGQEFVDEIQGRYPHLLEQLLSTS
T1 sequence (Q13489 236-349): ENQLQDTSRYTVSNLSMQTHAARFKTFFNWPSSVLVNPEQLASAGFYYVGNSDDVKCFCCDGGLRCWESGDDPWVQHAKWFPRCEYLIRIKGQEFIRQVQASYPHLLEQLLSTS

SMILES | Ki (cIAP2) | Ki (XIAP) | body weight change [1] | Ki (c-IAP1) | EC50 [2]
CN[C@@H](C)C(=O)N[C@H](C(=O)N1CCC[C@H]1CN(CCc1ccc(F)cc1)C(=O)c1cn(C)cn1)C(C)(C)C [Compound 40] | < 25 nM | < 250 nM | slight weight loss | < 25 nM | < 50 nM
CN[C@@H](C)C(=O)N[C@H](C(=O)N1CCC[C@H]1CN(CCc1ccc(F)cc1)C(=O)c1cn2cc(F)cnc2n1)C(C)(C)C [Compound 63] | < 25 nM | < 250 nM | slight weight loss | < 25 nM | < 50 nM
